# Source: ChEMBL document CHEMBL1201862, “PubChem BioAssay data set” (2004)
# Activity calls are given as the source filed them.
# What was measured:
# [1] = molecular target: T1, Aryl hydrocarbon receptor (Homo sapiens, UniProt P35869); assay: Luminescence-based cell-based high throughput dose response assay for activators of the Aryl Hydrocarbon Receptor (AHR). [Related pubchem assays: 2796 (Primary screen (AHR activators in singlicate)), 2845 (Confirmation screen (AHR activators in triplicate)), 434939 (Counterscreen (PXR activators in triplicate)), 2804 (Summary (AHR activators))]; format: ADME
# T1 sequence (P35869 whole entry): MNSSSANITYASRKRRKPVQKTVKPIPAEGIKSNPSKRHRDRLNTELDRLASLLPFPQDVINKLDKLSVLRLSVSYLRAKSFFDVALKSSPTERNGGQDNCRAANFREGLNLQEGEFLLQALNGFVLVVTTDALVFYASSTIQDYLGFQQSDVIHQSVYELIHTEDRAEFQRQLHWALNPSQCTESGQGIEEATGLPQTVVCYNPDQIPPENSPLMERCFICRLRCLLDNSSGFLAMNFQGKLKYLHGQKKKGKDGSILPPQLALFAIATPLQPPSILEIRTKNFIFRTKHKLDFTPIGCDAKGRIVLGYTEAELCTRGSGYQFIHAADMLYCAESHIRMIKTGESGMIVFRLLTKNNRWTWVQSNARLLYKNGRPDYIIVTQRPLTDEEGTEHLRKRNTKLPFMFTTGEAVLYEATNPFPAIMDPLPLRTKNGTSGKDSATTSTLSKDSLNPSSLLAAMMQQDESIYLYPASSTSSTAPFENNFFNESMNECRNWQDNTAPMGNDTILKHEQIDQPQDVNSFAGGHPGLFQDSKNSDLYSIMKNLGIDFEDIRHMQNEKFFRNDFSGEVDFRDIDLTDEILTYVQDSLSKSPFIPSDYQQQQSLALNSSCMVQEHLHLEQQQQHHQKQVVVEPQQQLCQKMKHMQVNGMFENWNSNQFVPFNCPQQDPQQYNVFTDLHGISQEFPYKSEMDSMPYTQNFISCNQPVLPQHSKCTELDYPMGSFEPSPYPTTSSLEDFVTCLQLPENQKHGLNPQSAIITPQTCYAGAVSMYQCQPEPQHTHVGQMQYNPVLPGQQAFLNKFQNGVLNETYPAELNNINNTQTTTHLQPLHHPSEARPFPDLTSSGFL
# [2] = molecular target: Neuropeptide Y receptor type 2 (Homo sapiens, UniProt P49146); format: functional, cell-based;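 note: HEK293 cells expressing the receptor and a CNG channel; stimulus was NPY near EC95 followed by isoproterenol to raise cAMP; antagonist potency measured as restoring cAMP signal that NPY suppresses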
# [3] = molecular target: Neuropeptide Y receptor type 1 (Homo sapiens, UniProt P25929); format: functional;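 note: HEK293 cells with a CNG channel challenged with NPY then isoproterenol; potency as antagonist that reverses NPY suppression of cAMP signal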
# [4] = molecular target: Glyceraldehyde-3-phosphate dehydrogenase (Homo sapiens, UniProt P04406)
# [5] = molecular target: Transitional endoplasmic reticulum ATPase (Homo sapiens, UniProt P55072); assay: Luminescence dose response biochemical high throughput screening assay for inhibitors of the p97 ATPase: synthesized compounds. [Related pubchem assays: 1481, 1517 ]
# [6] = molecular target: Transitional endoplasmic reticulum ATPase (Homo sapiens, UniProt P55072, C522A); assay: Luminescence counterscreen assay for p97 inhibitors: dose response biochemical high throughput screening assay to identify inhibitors of the C522A mutant p97 ATPase: synthesized compounds. [Related pubchem assays: 1481, 1517, 1551 ]
# Estrogen receptor beta [7] = molecular target: T2, Estrogen receptor beta (Homo sapiens, UniProt Q92731);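 note: recombinant ER-beta bound to coactivator SRC1 peptide in presence of estradiol agonist; inhibitors block coactivator peptide binding and lower the FRET signal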
# [8] = molecular target: T3, Carboxy-terminal domain RNA polymerase II polypeptide A small phosphatase 1 (Homo sapiens, UniProt Q9GZU7); assay: inhibitors of CTDSP1, concentration-response testing, biochemical assay, absorbance-based, actives from ultra-high-throughput screening (AID 540297); format: functional
# T3 sequence (Q9GZU7 whole entry): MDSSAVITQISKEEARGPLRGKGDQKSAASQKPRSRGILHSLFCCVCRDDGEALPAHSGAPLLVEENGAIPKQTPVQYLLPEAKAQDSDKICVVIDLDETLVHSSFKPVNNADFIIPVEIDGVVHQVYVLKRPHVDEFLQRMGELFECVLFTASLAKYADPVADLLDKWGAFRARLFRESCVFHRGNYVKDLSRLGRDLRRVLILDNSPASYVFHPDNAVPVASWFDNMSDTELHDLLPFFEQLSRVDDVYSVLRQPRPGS
# Estrogen receptor beta [9] = molecular target: T2, Estrogen receptor beta; assay: ERβ–SRC-3 coactivator interaction inhibitors, confirmation, orthogonal assay, biochemical, ELISA, streptavidin-HRP readout (AID 1060)
# Bcl-2-like protein 10 = molecular target: T4, Bcl-2-like protein 10 (Homo sapiens, UniProt Q9HD36); assay: displacers of TR3 peptide from Bcl-B, primary screen, selectivity assay for Bfl-1 inhibitor project, biochemical, fluorescence polarization, FITC-TR3 peptide (AID 748);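 note: fluorescence polarization from a fluorescein-labelled TR3 peptide binding purified Bcl-B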
# T4 sequence (Q9HD36 whole entry): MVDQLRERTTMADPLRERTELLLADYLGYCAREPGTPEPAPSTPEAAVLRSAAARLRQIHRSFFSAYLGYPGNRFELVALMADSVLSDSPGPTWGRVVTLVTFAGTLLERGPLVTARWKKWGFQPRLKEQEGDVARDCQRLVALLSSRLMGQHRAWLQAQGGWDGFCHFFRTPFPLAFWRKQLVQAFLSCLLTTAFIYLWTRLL
# [10] = molecular target: Peroxisome proliferator-activated receptor gamma/Nuclear receptor coactivator 2 (Homo sapiens, UniProt P37231); format: functional;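 note: agonist potency for raising coactivator recruitment to the receptor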
# [11] = molecular target: Peroxisome proliferator-activated receptor gamma/Nuclear receptor coactivator 3 (Homo sapiens, UniProt P37231); format: functional;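 note: agonist potency for raising coactivator recruitment to the receptor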
# [12] = molecular target: Peroxisome proliferator-activated receptor gamma/Nuclear receptor coactivator 1 (Homo sapiens, UniProt P37231); format: functional;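 note: agonist potency as compounds enhance coactivator SRC-1 recruitment to PPARgamma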
# [13] = molecular target: Luciferin 4-monooxygenase (Photinus pyralis, UniProt P08659); assay: Counter Screen for Luciferase-based Assay Positives. [Related pubchem assays: 620, 618, 411 ]
# HT-1080 = assay: cytotoxicity in HT1080 fibrosarcoma cells, cell-based, fluorescence readout (AID 620); format: functional; settings: Homo sapiens
# [14] = Luminescence-based cell-based high throughput dose response assay to identify activators of the DAF-12 from the parasite S. stercoralis (ssDAF-12).; format: functional
# [15] = molecular target: T5, Oxysterols receptor LXR-beta (Homo sapiens, UniProt P55055); assay: LXR agonists, Gal4 luciferase reporter, dose response, counter-screen for ssDAF-12 agonist project, cell-based, luminescence, HEK293, S. stercoralis campaign (AID 720737); format: functional; settings: read-out: IC50 (the source's name)
# T5 sequence (P55055 whole entry): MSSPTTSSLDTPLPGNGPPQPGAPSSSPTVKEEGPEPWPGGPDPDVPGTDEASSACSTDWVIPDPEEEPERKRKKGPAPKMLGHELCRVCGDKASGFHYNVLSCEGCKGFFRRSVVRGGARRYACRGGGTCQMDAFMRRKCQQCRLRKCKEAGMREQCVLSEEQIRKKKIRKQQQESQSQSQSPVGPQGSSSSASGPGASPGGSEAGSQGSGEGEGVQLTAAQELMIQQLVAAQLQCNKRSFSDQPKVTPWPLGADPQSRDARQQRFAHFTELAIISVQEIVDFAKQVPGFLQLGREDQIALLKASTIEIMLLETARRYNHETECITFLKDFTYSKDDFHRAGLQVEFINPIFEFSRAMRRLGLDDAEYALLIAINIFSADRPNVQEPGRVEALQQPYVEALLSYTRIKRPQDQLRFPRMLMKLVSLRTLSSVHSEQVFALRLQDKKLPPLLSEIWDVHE
# [16] = molecular target: Protein-tyrosine kinase 2-beta (Homo sapiens, UniProt Q14289);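 note: potency of inhibitors of PYK2 kinase phosphorylation of poly-GT substrate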
# [17] = molecular target: T6, Mannose-6-phosphate isomerase (Homo sapiens, UniProt P34949); assay: inhibitors of human PMI, primary screen, biochemical, fluorescence intensity, coupled assay (AID 1209)
# T6 sequence (P34949 whole entry): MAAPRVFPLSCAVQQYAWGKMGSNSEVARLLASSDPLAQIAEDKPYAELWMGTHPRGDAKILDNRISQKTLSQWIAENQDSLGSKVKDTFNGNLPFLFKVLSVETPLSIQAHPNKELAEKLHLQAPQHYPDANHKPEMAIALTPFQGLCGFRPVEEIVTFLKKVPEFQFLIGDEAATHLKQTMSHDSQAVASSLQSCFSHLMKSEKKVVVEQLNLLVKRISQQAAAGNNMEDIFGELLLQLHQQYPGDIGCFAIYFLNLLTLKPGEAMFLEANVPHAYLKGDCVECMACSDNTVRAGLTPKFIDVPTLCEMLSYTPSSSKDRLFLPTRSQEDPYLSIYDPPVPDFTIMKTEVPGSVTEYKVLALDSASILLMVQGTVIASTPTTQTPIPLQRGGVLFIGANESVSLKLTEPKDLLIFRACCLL
# [18] = molecular target: Melanin-concentrating hormone receptor 1 (Homo sapiens, UniProt Q99705); assay: Fluorescence-based counterscreen for antagonists of the G-protein coupled receptor 7 (GPR7): cell-based high throughput dose response assay to identify antagonists of the melanin-concentrating hormone receptor 1 (MCHR1).; format: functional
# [19] = molecular target: T7, Neuropeptides B/W receptor type 1 (Homo sapiens, UniProt P48145); assay: Fluorescence-based dose response cell-based high throughput screening assay to identify antagonists of the G-protein coupled receptor 7 (GPR7). [Related pubchem assays: 1952 (Screening assay (GPR7 antagonists).), 1880 (Summary AID.)]; format: functional
# T7 sequence (P48145 whole entry): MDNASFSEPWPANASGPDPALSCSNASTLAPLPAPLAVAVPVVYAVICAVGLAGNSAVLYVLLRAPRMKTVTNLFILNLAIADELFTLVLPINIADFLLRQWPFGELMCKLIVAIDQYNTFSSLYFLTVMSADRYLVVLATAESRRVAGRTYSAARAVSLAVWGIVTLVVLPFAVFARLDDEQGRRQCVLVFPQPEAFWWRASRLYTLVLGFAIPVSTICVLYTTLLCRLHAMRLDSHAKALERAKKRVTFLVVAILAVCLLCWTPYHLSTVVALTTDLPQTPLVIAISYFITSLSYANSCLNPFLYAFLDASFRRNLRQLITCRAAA
# [20] = molecular target: Lysosomal acid glucosylceramidase (Homo sapiens, UniProt P04062); assay: Dose response cell-based high throughput screening assay to identify enhancers of beta-glucosidase activity. [Related pubchem assays: 784 ]; format: functional
# Ion channel NompC = Ion channel NompC (Danio rerio, UniProt Q7T1G6); assay: Fluorescence counterscreen assay for TRPML3 agonists: dose response cell-based high-throughput screening assay to identify agonists of the transient receptor potential channel N1 (TRPN1). [Related pubchem assays: 1526, 1424, 1448 ]; format: functional
# Mucolipin-3 = Mucolipin-3 (Homo sapiens, UniProt Q8TDD5); assay: Dose response cell-based high-throughput screening assay for agonists of the transient receptor potential channel ML3 (TRPML3). [Related pubchem assays: 1526, 1424, 1448 ]; format: functional
# H9c2 = assay: cells; format: functional, cell-based; settings: Rattus norvegicus, H9c2, Myocardium;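 note: confirmatory concentration-response retest of ultra-high-throughput screening hits for modulation of myocardial damage; cell death induced by hydrogen peroxide oxidative stress; compound pretreatment for 60 min then peroxide exposure for 2 h; potency is for protecting the cells against peroxide damage rather than for killing them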
# [21] = cytotoxicity in KRAS-transformed pancreatic duct cells, primary screen, cell-based, fluorescence, HTS (AID 431); format: functional; settings: Homo sapiens;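 note: cell line used: HPDE-C7K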
# [22] = growth suppression of beta-catenin-knockout colon cells, dose response, cell-based, HCT116, human colon tumor (AID 1045); format: functional;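 note: HCT116 colon tumor cells with beta catenin knocked out; cells exposed to compound for 60 hours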
# [23] = cytotoxicity in HPDE-C7 cells, cell-based, fluorescence, HTS (AID 430); format: functional; settings: Homo sapiens
# [24] = A Cell Based Secondary Assay To Explore Cytotoxicity of Compounds that Sensitize Mycobacterium Tuberculosis to Beta-Lactam Antibiotics.; format: functional
# [25] = growth suppression of PTEN-null colon cells, dose response, cell-based, HCT116 PTEN knockout (AID 1047); format: functional;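 note: HCT116 colon tumor cells with PTEN knocked out; cells exposed to compound for 60 hours before readout; potency for loss of cell viability measured by luminescence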
# [26] = system: Streptococcus sp. 'group A'; assay: growth inhibition of control SK(-) GAS strain, dose response, counter-screen for streptokinase expression inhibitor project, luminescence, kanamycin, BacTiterGlo, confirmation (AID 1900); format: functional, organism-based
# Streptococcus = assay: Group A Streptococcus viability loss, dose response, counter-screen for streptokinase expression inhibitor project, luminescence, BacTiterGlo (AID 1915); format: functional, organism-based;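 note: potency for reduction of bacterial viability or growth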
# Chain of Neuropeptide Y receptor type 1 (P25929 whole entry): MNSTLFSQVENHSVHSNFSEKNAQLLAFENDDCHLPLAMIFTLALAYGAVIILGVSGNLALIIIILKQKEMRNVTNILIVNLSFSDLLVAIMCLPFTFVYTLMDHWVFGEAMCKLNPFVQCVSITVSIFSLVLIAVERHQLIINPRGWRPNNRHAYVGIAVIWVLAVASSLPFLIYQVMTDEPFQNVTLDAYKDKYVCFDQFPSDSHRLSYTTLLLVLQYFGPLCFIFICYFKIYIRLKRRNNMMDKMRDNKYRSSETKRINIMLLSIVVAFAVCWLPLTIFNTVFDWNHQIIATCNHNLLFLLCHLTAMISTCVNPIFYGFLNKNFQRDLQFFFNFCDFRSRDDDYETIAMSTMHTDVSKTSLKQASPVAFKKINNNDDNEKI
# Chain of Melanin-concentrating hormone receptor 1 (Q99705 whole entry): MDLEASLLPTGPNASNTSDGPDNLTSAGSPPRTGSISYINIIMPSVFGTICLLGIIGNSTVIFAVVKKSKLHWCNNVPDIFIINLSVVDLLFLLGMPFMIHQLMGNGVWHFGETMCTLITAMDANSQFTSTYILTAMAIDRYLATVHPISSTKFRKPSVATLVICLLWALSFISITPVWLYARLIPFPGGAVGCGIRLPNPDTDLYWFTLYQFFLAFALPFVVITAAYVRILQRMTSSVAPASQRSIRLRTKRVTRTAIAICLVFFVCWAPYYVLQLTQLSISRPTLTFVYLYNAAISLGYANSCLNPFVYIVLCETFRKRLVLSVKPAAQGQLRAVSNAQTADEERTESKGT
# Chain of Transitional endoplasmic reticulum ATPase (Homo sapiens, UniProt P55072, C522A) (P55072 2-806 C522A limits assumed): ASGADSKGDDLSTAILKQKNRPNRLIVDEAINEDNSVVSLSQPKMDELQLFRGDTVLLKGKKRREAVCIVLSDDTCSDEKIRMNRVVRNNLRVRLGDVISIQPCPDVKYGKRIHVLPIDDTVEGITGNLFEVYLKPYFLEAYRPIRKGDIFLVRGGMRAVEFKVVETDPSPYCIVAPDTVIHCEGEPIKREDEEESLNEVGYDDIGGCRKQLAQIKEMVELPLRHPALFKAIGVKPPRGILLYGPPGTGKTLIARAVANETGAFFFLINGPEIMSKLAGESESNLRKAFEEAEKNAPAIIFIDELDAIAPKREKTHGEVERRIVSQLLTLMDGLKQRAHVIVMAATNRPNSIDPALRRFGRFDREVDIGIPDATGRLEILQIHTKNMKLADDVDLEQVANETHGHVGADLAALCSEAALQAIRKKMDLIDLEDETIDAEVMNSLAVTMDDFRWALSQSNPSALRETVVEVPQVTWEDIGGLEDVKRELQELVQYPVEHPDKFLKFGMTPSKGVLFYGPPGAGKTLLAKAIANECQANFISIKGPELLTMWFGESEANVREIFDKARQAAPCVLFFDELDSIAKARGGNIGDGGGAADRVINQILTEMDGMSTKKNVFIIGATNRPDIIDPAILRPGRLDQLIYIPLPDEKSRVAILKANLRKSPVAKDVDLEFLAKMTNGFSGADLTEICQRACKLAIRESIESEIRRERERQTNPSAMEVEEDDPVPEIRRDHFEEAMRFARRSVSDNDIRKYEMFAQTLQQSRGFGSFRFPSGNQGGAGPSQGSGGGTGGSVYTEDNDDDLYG
# Chain of Transitional endoplasmic reticulum ATPase (Homo sapiens, UniProt P55072) (P55072 whole entry): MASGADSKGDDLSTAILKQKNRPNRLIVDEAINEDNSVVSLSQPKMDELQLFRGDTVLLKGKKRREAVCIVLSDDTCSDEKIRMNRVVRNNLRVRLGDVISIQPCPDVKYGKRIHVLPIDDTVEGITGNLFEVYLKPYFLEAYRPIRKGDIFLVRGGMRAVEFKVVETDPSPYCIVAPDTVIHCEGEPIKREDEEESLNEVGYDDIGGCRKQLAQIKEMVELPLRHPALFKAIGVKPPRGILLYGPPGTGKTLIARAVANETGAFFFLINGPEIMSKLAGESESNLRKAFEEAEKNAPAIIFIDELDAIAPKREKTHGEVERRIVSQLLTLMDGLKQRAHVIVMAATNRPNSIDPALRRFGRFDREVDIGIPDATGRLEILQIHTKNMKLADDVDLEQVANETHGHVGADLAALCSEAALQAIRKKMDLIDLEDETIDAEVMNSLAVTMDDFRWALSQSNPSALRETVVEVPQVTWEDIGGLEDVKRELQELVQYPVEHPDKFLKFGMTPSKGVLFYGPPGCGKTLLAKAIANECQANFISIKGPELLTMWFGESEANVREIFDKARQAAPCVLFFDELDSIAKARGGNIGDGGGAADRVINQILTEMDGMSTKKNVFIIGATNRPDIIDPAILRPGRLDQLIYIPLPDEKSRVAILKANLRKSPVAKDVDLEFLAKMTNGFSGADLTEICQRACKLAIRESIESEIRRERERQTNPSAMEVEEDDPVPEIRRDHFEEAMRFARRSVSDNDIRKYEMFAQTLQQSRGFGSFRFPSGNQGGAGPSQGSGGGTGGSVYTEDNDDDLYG
# Chain of Lysosomal acid glucosylceramidase (P04062 whole entry): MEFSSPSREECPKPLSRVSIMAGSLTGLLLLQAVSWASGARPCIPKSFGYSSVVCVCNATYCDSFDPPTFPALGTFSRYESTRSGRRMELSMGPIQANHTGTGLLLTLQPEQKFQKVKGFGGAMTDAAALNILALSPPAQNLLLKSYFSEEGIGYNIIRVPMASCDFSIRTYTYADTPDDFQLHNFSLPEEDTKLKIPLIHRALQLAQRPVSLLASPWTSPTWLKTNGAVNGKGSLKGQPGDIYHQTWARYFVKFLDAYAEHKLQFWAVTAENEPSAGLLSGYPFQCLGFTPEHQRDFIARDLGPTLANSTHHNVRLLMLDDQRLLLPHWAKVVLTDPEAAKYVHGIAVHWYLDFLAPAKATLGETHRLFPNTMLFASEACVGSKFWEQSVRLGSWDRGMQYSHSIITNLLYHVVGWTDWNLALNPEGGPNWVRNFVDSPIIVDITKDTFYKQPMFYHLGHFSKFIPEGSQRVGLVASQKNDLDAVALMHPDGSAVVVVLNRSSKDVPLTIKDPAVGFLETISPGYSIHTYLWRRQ
# T2 sequence (Q92731 whole entry, the tested form may be a part): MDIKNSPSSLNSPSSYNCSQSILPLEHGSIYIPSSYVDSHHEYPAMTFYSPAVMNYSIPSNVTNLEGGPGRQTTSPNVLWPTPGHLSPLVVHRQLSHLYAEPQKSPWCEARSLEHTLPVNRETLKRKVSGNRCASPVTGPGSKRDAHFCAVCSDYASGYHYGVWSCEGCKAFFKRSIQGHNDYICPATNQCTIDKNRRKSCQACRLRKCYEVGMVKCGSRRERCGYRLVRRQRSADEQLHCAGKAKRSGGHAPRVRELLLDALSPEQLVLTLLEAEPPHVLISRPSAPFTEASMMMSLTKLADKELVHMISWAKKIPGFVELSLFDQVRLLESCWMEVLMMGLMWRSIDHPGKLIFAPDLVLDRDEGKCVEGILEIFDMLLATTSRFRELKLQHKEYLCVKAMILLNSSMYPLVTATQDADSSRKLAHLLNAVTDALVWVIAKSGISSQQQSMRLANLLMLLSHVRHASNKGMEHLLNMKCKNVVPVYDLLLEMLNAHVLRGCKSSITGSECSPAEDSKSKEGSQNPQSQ
# Chain of Neuropeptide Y receptor type 2 (P49146 whole entry): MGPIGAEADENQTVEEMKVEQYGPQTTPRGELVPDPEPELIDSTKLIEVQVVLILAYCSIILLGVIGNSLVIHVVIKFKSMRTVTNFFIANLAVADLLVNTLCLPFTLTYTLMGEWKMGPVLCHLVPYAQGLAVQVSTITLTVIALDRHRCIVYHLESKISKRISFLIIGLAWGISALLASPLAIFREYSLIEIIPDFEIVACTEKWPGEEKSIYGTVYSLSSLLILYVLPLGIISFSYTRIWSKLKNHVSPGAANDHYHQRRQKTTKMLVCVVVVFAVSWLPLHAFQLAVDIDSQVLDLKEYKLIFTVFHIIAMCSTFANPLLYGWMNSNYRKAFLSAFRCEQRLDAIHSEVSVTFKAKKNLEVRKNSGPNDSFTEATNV
# Chain of Glyceraldehyde-3-phosphate dehydrogenase (P04406 whole entry): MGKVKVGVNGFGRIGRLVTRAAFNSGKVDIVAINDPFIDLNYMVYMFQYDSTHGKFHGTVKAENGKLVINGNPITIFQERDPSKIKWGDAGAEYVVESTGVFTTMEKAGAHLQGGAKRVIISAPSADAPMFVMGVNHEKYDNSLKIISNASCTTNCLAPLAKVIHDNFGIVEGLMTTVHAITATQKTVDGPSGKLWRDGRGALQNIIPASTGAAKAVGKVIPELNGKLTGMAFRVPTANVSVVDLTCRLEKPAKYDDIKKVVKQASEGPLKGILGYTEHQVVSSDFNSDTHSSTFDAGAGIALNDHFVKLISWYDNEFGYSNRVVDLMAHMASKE
# Chain of Mucolipin-3 (Q8TDD5 whole entry): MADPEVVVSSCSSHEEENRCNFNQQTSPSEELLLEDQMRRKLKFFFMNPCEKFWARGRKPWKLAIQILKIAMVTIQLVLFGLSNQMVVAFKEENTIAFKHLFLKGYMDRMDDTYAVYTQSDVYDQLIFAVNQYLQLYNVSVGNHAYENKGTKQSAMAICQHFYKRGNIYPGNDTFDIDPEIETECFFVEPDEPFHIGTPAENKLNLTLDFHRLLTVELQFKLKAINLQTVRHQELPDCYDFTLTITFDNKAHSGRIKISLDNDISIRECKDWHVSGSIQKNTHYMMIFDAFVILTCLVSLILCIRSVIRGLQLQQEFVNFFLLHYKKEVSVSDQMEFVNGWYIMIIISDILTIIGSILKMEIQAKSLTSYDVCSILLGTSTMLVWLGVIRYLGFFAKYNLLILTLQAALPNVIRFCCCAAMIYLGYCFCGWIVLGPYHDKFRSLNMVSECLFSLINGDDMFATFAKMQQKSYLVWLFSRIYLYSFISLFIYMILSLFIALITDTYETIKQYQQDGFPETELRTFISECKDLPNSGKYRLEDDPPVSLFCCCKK
smiles,measurement,setting,value
CCOC(=O)c1oc2ccccc2c1N,EC50,[1],7.43 µM (active)
CN(C)Cc1ccccc1Sc1cccc2ccccc12,IC50,[2],9.22 µM (active)
same,IC50,[3],6.03 µM (active)
C[C@@H]1CN(C2=C(Cl)C(=O)N(c3ccc(C(F)(F)F)cc3)C2=O)CCN1,IC50,[4],> 50 µM (inconclusive)
CCOC(=O)/C(C#N)=C/c1sc2ccccc2c1-c1ccccc1,IC50,[5],> 50 µM (not active)
same,IC50,[6],> 50 µM (not active)
Cc1cc(-c2csc(Nc3ccc(C#N)cc3)n2)c(C)n1Cc1ccccc1,IC50,[5],> 50 µM (not active)
same,IC50,[6],> 50 µM (not active)
COc1ccc2c(c1)c(=O)oc1cc(OCC(=O)N3CCc4ccccc4C3)ccc12,IC50,Estrogen receptor beta [7],> 50 µM (not active)
same,IC50,[8],2.9 µM (active)
same,IC50,Estrogen receptor beta [9],5.58 µM (active)
same,IC50,Bcl-2-like protein 10,29.8 µM (active)
O=C1c2cccc(OCC(=O)N3CCCc4ccccc43)c2CCN1Cc1ccccc1,EC50,[10],> 79.4 µM (not active)
same,EC50,[11],> 79.4 µM (not active)
same,EC50,[12],> 79.4 µM (not active)
O=C1c2ccccc2C(=O)C1c1ccnc2ccccc12,EC50,[13],3.42 µM (active)
same,EC50,HT-1080,> 50 µM (not active)
same,IC50,[14],> 67.5 µM (inactive)
same,EC50,[15],> 67.5 µM (inactive)
same,IC50,[16],4.75 µM (active)
Cc1ccc([N+](=O)[O-])c(C)[n+]1C,IC50,[17],> 50 µM (not active)
N#Cc1ccc(CSc2nnc(Cc3cccs3)n2Cc2ccco2)cc1,IC50,[18],23 µM (not active)
same,IC50,[19],> 43.8 µM (not active)
CCOC(=O)NC(CC(=O)O)c1ccc(OCC)cc1 (stereo unspecified),EC50,[20],> 50 µM (not active)
COc1cccc(CN(Cc2ccco2)C(c2ccc(F)cc2)c2nnnn2C(C)(C)C)c1 (stereo unspecified),EC50,Ion channel NompC,> 29.9 µM (not active)
same,EC50,Mucolipin-3,> 29.9 µM (not active)
Cc1ccc2cc3c(NC(=O)CC(C)C)nn(C)c3nc2c1,EC50,[1],0.476 µM (active)
NS(=O)(=O)c1ccc2nc(NC(=O)Nc3ccc(F)cc3)sc2c1,IC50,[18],> 43.8 µM (not active)
same,IC50,[19],> 43.8 µM (not active)
COC(=O)c1ccc(CSc2nc3sc4c(c3c(=O)n2C)CCCC4)o1,IC50,[2],6.21 µM (active)
same,IC50,[3],6.95 µM (active)
CCOc1ccccc1CNS(=O)(=O)c1ccc2nc(O)sc2c1,EC50,[20],> 10 µM (not active)
CCOC(=O)C1=C(C)N=c2s/c(=C\c3ccncc3)c(=O)n2C1c1ccc2c(c1)OCO2 (stereo unspecified),IC50,H9c2,> 79 µM (inactive)
same,EC50,[21],11 µM (active)
same,EC50,[22],10.2 µM (active)
same,EC50,[23],16.3 µM (active)
same,CC50,[24],> 40 µM (active)
same,EC50,[25],10.5 µM (active)
COc1ccc(C(=O)/C=C/c2ccc(O)cc2)c(O)c1CC=C(C)C,EC50,[26],2.71 µM (active)
same,EC50,Streptococcus,3.01 µM (active)
same,CC50,[24],> 40 µM (active)
